Measured values as given in the NIST ThermoML archive (doi:10.1016/j.fluid.2015.03.036).
± gives the expanded uncertainty stated by the source.

Assays:
[1] = Solid-liquid equilibrium temperature; conditions: 100 kPa; Crystal; DTA
[2] = Molar enthalpy of transition or fusion; conditions: Crystal; DSC

Structure (SMILES): O=P(Nc1ccccc1)(Oc1ccccc1)Oc1ccccc1 [diphenyl anilinophosphonate]
- Solid-liquid equilibrium temperature [1]: 406.91 ± 0.32 K
- Molar enthalpy of transition or fusion [2]: 0.0171 ± 0.0406 kcal/mol
